Assay results: US20220251081A1, “HETEROBICYCLIC INHIBITORS OF MAT2A AND METHODS OF USE FOR TREATING CANCER” (priority 2019, published 2022)

Assays:
[1] = molecular target: T1, MAT2A homodimer (Homo sapiens, UniProt P31153); test: Biochemical assay: inhibition of recombinant MAT2A homodimer (phosphate release, PiColorLock Gold); conditions: MAT2A IC50 score; read-out: Enzyme Inhibition
T1 construct: inferred from Ni sepharose purification and imidazole elution; made in house; host or cells: Sf9 insect cells, recombinant baculovirus (Bac to Bac, pFASTBAC1 vector)
T1 sequence (P31153 whole entry): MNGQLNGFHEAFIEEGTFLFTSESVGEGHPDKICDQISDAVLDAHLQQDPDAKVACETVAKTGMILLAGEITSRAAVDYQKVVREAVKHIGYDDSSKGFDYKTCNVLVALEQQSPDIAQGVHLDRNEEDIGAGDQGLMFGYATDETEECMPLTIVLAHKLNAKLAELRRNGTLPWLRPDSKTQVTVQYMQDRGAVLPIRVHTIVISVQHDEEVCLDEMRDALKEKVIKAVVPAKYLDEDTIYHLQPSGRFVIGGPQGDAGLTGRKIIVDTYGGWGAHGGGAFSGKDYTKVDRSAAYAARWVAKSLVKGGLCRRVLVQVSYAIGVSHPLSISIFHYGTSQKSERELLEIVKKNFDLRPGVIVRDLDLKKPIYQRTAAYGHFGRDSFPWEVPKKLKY
Protocol: Mat2A protein was expressed by recombinant baculovirus in SF9 infected cells using the Bac to Bac system cloned into the pFASTBAC1 vector (Invitrogen, Carlsbad, Calif.). Recombinant MAT2A was isolated from the cell lysate of 150 g of infected cells using HP Ni sepharose column chromatography. Recombinant MAT2A homodimer was eluted with 250 and 500 mM imidazole, and fractions containing MAT2A were identified by sodium dodecyl sulfate polyacrylamide gel electrophoresis and pooled.
For determination of the inhibitory potency of compounds against the MAT2A homodimer, protein was diluted to 4 μg/mL in assay buffer (50 mM Tris, pH 8.0, 50 mM KCl, 15 mM MgCl2, 0.3 mM EDTA, 0.005% [w/v] bovine serum albumin [BSA]). Test compound was prepared in 100% dimethyl sulfoxide (DMSO) at 50× the desired final concentration. A 1 μL volume of compound dilution was added to 40 μL of enzyme dilution and the mixture was allowed to equilibrate for 60 minutes at 25° C. The enzymatic assay was initiated by the addition of 10 μL of substrate mix (500 μM ATP, pH 7.0, 40 μM L-methionine in 1× assay buffer), and the mixture was incubated for a further 60 minutes at 25° C. The reaction was halted and the liberated phosphate released by the enzyme in stoichiometric amounts by the production of S-adenosyl methionine (SAM) was measured using the PiColorLock Gold kit (Innova Biosciences, UK). Absolute product amounts were determined by comparison to a standard curve of potassium phosphate buffer, pH 8.0.

[2] = system: SAM in HCT116 human colon carcinoma cell line with deleted MTAP gene; test: Cellular assay of target engagement (SAM): SAM level by LC-MS/MS after 72 hrs; assay type: cell-based; conditions: HCT-116, IC50 score, read-out: Cell 72 h SAM Inhibition (MTAP −/−)
Protocol: Cellular Assay of Target Engagement (SAM)
Measurement of MAT2A activity in cells was made by direct quantitation of the abundance of the product of its enzymatic activity, SAM. Cancer cells were treated with candidate MAT2A inhibitors for a suitable incubation period, and the cells were then lysed using a reagent which quenched any further enzyme activity. Soluble metabolites including SAM were collected and SAM itself was directly measured from the lysate using quantitative LC-MS/MS.
A typical assay was performed using an HCT116 human colon carcinoma cell line which was genetically engineered to delete the MTAP gene (commercially available from Horizon Discovery). This cell line was utilized because it was determined that loss of the MTAP gene predicts sensitivity to MAT2A inhibitors. Cells were plated in 96-well dishes at appropriate cell density. Following 24 hours, cells were then treated with the candidate MAT2A inhibitor. Prior to addition to cells, the compound was first serially diluted in 100% DMSO, typically as a 3-fold serial dilution starting at 500× top dose with 10 dose points including DMSO only control. Compound was then transferred to a working stock plate in cell culture media by adding 5 μL of compound in DMSO to 495 μL of cell culture media. This working stock was then added to cells via a further 5-fold dilution, by adding 25 μL of working stock to 100 μL of cells in culture media. Following compound addition, cells were incubated at 37° C./5% CO2 for 72 hrs.
To quantitate SAM levels following compound treatment, cells were gently washed once in ammonium carbonate buffer (75 mM at pH 7.4), placed on dry ice, and lysed with metabolite extraction buffer (80% cold methanol and 20% water (v/v) with acetic acid at 1M final concentration with 200 ng/mL deuterated d3-SAM as internal control). Following centrifugation at 4° C. at 3,200 rpm for 30 minutes, the supernatant was collected and stored at −80° C. until analysis by Liquid Chromatography with tandem Mass Spectrometry (LC-MS/MS). LC-MS/MS analysis was performed using an API6500 Mass Spectrometer (Sciex, Framingham, Mass., USA) operating in positive ion spray mode and equipped with a Waters UPLC Acquity (Waters, Milford, Mass., USA) BEH Amide column. Multiple Reaction Monitoring data was acquired for SAM and the d3-SAM standard, using a mass transition pair at m/z 399.2→250.1 and 402.2→250.1, respectively. In a typical LC-MS/MS analysis, the initial flow rate was 0.5 ml/min of 25% mobile phase A (acetonitrile and water at 5:95 (v/v) with 1% formic acid and 10 mM ammonium acetate) and 75% mobile phase B (acetonitrile and water at 95:5 (v/v) with 1% formic acid and 10 mM ammonium acetate), 0.2-0.5 minutes with 75%-35% mobile phase B, 25%-65% mobile phase A, at 0.5 min 65% mobile phase A and 35% mobile phase B, 1.0-1.1 minutes with 35%-75% mobile phase B, 65%-25% mobile phase A, at 1.1 min 25% mobile phase A and 75% mobile phase B with a total run time of 1.5 minutes.

[3] = system: HCT116 MTAP-/-; test: Inhibition of cellular proliferation, 4 days, Cell Titer Glo, HCT116 MTAP-/-; assay type: cell-based; conditions: Homo sapiens, HCT-116, 96 h, IC50 score, read-out: 4 Day Relative Growth Inhibition (MTAP −/−)
Protocol: (§1) Assay for Inhibition of Cellular Proliferation
(§2) Test compound impact on cancer cell growth was assessed by treating cancer cells with compound for 4 days and then measuring proliferation using an ATP-based cell proliferation readout (Cell Titer Glo, Promega Corporation).
(§3) In a typical assay an isogenic pair of HCT116 human colon carcinoma cell lines which vary only in MTAP deletion status (HCT116 MTAP +/+ and HCT116 MTAP−/−) were plated in 96-well dishes at appropriate cell density. Following 24 hours, cells were then treated with the candidate MAT2A inhibitor. Prior to addition to cells, the compound was first serially diluted in 100% DMSO, typically as a 3-fold serial dilution starting at 500× top dose with 10 dose points including DMSO only control. Compound was then transferred to a working stock plate in cell culture media by adding 5 μL of compound in DMSO to 495 μL of cell culture media. This working stock was then added to cells via a further 5-fold dilution, by adding 25 μL of working stock to 100 μL of cells in culture media. Following compound addition, cells were incubated at 37° C./5% C02 for 4 days.
(§4) To measure inhibition of cellular proliferation, cells were allowed to equilibrate to room temperature for 30 minutes, and were then treated with 125 μL of Cell Titer Glo reagent. The plate was then covered with aluminum foil and shaken for 15 minutes to ensure complete mixing and full cell lysis. Luminescent signal was then measured using a plate-based luminometer Veritas version 1.9.2 using ATP standard curve to confirm assay reproducibility from run to run. This luminescence measure was converted to a proliferation index by subtracting from each data point the ATP luminescence signal measured from a bank (no cells) well and dividing by the ATP luminescence signal measured in 0.2% DMSO control well adjusted for signal in blank well. Compound activity was then represented as a percentage change in proliferation relative to a within-plate DMSO control against log 10 of compound concentration in molar (M) units.

[4] = system: HCT116 MTAP +/+; test: Inhibition of cellular proliferation, 4 days, Cell Titer Glo, HCT116 MTAP+/+; assay type: cell-based; conditions: Homo sapiens, HCT-116, 96 h, IC50 score, read-out: 4 Day Relative Growth Inhibition (MTAP +/+)
Protocol: as §1, §2, §3, §4

SMILES: COc1ccc(-c2cc3cnc(NCC(F)(F)F)nc3n(-c3ccc(C4CC4)cc3)c2=O)cc1 [Example 118]
- IC50 [1]: < 100 nM
- IC50 [2]: < 100 nM
- IC50 [3]: < 100 nM
- IC50 [4]: ≥ 1000 nM

SMILES: Cn1cc2cc(-c3cc4ccc(OCC(F)(F)F)nc4n(-c4ccc(Cl)cc4)c3=O)ccc2n1 [Example 119, 1-(4-chlorophenyl)-3-(2-methyl-2H-indazol-5-yl)-7-(2,2,2-trifluoroethoxy)-1,8-naphthyridin-2(1H)-one]
- IC50 [1]: < 100 nM
- IC50 [2]: < 100 nM
- IC50 [3]: < 100 nM
- IC50 [4]: ≥ 1000 nM

SMILES: Cn1cc2cc(-c3cc4ccc(NCC(F)(F)F)nc4n(-c4ccc(OC(F)F)cc4)c3=O)ccc2n1 [Example 120]
- IC50 [1]: < 100 nM
- IC50 [2]: < 100 nM
- IC50 [3]: < 100 nM
- IC50 [4]: ≥ 1000 nM

SMILES: Cn1cc2cc(-c3cc4ccc(OC5CC5)nc4n(-c4ccc(Cl)cc4)c3=O)ccc2n1 [Example 121]
- IC50 [1]: < 100 nM
- IC50 [2]: < 100 nM
- IC50 [3]: < 100 nM
- IC50 [4]: ≥ 1000 nM

SMILES: Cn1cc2cc(-c3cc4ccc(OCC(F)F)nc4n(-c4ccc(Cl)cc4)c3=O)ccc2n1 [Example 122]
- IC50 [1]: < 100 nM
- IC50 [2]: < 100 nM
- IC50 [3]: < 100 nM
- IC50 [4]: 100 to 1000 nM

SMILES: COc1ccc(-n2c(=O)c(-c3ccc4nn(C)cc4c3)cc3ccc(OCC(F)(F)F)nc32)cn1 [Example 123]
- IC50 [1]: < 100 nM
- IC50 [2]: < 100 nM
- IC50 [3]: < 100 nM
- IC50 [4]: ≥ 1000 nM

SMILES: COc1ccc(-n2c(=O)c(-c3ccc4nn(C)cc4c3)cc3ccc(OCC(F)F)nc32)cn1 [Example 124]
- IC50 [1]: < 100 nM
- IC50 [2]: < 100 nM
- IC50 [3]: < 100 nM
- IC50 [4]: 100 to 1000 nM

SMILES: COc1ccc(-c2cc3cnc(NCC(F)(F)F)nc3n(-c3ccc(OC(F)F)cc3)c2=O)cc1 [Example 127]
- IC50 [1]: < 100 nM
- IC50 [2]: < 100 nM
- IC50 [3]: 100 to 1000 nM
- IC50 [4]: ≥ 1000 nM

SMILES: COc1ccc(-c2cc3cnc(NCC(F)(F)F)nc3n(-c3ccc(CCO)cc3)c2=O)cc1 [Example 129]
- IC50 [1]: < 100 nM
- IC50 [2]: < 100 nM
- IC50 [3]: < 100 nM
- IC50 [4]: ≥ 1000 nM

SMILES: COc1ccc(-c2cc3ccc(NCC(F)(F)F)nc3n(-c3ccc(OC(F)F)cc3)c2=O)cc1 [Example 130, 1-(4-(difluoromethoxy)phenyl)-3-(4-methoxyphenyl)-7-(2,2,2-trifluoroethylamino)-1,8-naphthyridin-2(1H)-one]
- IC50 [1]: < 100 nM
- IC50 [2]: < 100 nM
- IC50 [3]: 100 to 1000 nM
- IC50 [4]: ≥ 1000 nM

SMILES: COc1ccc(-c2cc3ccc(NCC(F)(F)F)nc3n(-c3ccc(OC)cc3)c2=O)cc1 [Example 131]
- IC50 [1]: < 100 nM
- IC50 [2]: < 100 nM
- IC50 [3]: < 100 nM
- IC50 [4]: ≥ 1000 nM

SMILES: Cn1cnc2ccc(-c3cc4ccc(NCC(F)(F)F)nc4n(-c4ccc(OC(F)F)cc4)c3=O)cc21 [Example 135]
- IC50 [1]: < 100 nM
- IC50 [2]: < 100 nM
- IC50 [3]: < 100 nM
- IC50 [4]: ≥ 1000 nM

SMILES: CCOc1ccc2cc(-c3ccc4nn(C)cc4c3)c(=O)n(-c3ccc(Cl)cc3)c2n1 [Example 138]
- IC50 [1]: < 100 nM
- IC50 [2]: < 100 nM
- IC50 [3]: < 100 nM
- IC50 [4]: 100 to 1000 nM

SMILES: CCOc1ccc2cc(-c3ccc(OC)cc3)c(=O)n(-c3ccc(OC(F)F)cc3)c2n1 [Example 139]
- IC50 [1]: < 100 nM
- IC50 [2]: < 100 nM
- IC50 [3]: 100 to 1000 nM
- IC50 [4]: ≥ 1000 nM

SMILES: CCOc1ccc2cc(-c3ccc4nn(C)cc4c3)c(=O)n(-c3ccc(OC(F)F)cc3)c2n1 [Example 140]
- IC50 [1]: < 100 nM
- IC50 [2]: < 100 nM
- IC50 [3]: < 100 nM
- IC50 [4]: 100 to 1000 nM

SMILES: CCOc1ccc2cc(-c3ccc4nn(C)cc4c3)c(=O)n(-c3ccc(OC)cc3)c2n1 [Example 142]
- IC50 [1]: < 100 nM
- IC50 [2]: < 100 nM
- IC50 [3]: < 100 nM
- IC50 [4]: ≥ 1000 nM

SMILES: CCOc1ccc2cc(-c3ccc4nn(C)cc4c3)c(=O)n(-c3ccc(NC)nc3)c2n1 [Example 144]
- IC50 [1]: < 100 nM
- IC50 [2]: < 100 nM
- IC50 [3]: < 100 nM
- IC50 [4]: 100 to 1000 nM

SMILES: CCNc1ccc(-n2c(=O)c(-c3ccc4nn(C)cc4c3)cc3ccc(OCC)nc32)cn1 [Example 145]
- IC50 [1]: < 100 nM
- IC50 [2]: < 100 nM
- IC50 [3]: < 100 nM
- IC50 [4]: ≥ 1000 nM

SMILES: CNc1ccc(-n2c(=O)c(-c3ccc4nn(C)cc4c3)cc3ccc(OCC(F)F)nc32)cn1 [Example 147]
- IC50 [1]: < 100 nM
- IC50 [2]: < 100 nM
- IC50 [3]: < 100 nM
- IC50 [4]: 100 to 1000 nM

SMILES: [2H]C([2H])([2H])Oc1ccc(-n2c(=O)c(-c3ccc4nn(C)cc4c3)cc3ccc(OCC)nc32)cc1 [Example 148]
- IC50 [1]: < 100 nM
- IC50 [2]: < 100 nM
- IC50 [3]: < 100 nM
- IC50 [4]: 100 to 1000 nM

SMILES: [2H]C([2H])([2H])Oc1ccc(-n2c(=O)c(-c3ccc4nn(C)cc4c3)cc3ccc(OCC(F)F)nc32)cc1 [Example 149]
- IC50 [1]: < 100 nM
- IC50 [2]: < 100 nM
- IC50 [3]: < 100 nM
- IC50 [4]: 100 to 1000 nM

SMILES: CCOc1ccc2cc(-c3ccc4nn(C)cc4c3)c(=O)n(-c3ccc4scnc4c3)c2n1 [Example 150]
- IC50 [1]: < 100 nM
- IC50 [2]: < 100 nM
- IC50 [3]: < 100 nM
- IC50 [4]: ≥ 1000 nM

SMILES: CCOc1ccc2cc(-c3ccc4nn(C)cc4c3)c(=O)n(-c3ccc(C(F)(F)F)nc3)c2n1 [Example 151, 7-ethoxy-3-(2-methyl-2H-indazol-5-yl)-1-(6-(trifluoromethyl)pyridin-3-yl)-1,8-naphthyridin-2(1H)-one]
- IC50 [1]: < 100 nM
- IC50 [2]: < 100 nM
- IC50 [3]: < 100 nM
- IC50 [4]: ≥ 1000 nM
